The values that follow come from paper PMC2937023, “Molecular Decoy to the Y-Box Binding Protein-1 Suppresses the Growth of Breast and Prostate Cancer Cells whilst Sparing Normal Cell Viability” (PLoS ONE, 2010).

Ends that are not written are not given here.

Series [1] relates to YB-1 binding to the EGFR promoter. To be noted: previous work; cited from earlier work. How it is done: After 72 h, the CPP reduced HER-2 and EGFR protein levels in AU565 cells (Figure 3A). […] Further, in SUM149 cells, EGFR protein and mRNA levels were decreased (Figure 3C-D).
For series [2] the test system is unchanged. Description: Electrophoretic mobility shift assay (gel shift), SUM149 nuclear extracts. In kind it is biochemical, human. To be noted: SUM149 nuclear protein 5 µg pre-incubated 20 min with 25 µM peptide, EGFR2a oligonucleotides. The protocol: The gel shift assay was performed using EGFR2a oligonucleotides as previously described. Briefly, SUM149 cells were harvested and cytoplasmic/nuclear fractions were obtained using the NE-PER kit followed by EMSA using the Lightshift Chemiluminescent EMSA kit (both kits from Pierce Biotechnology, Rockford, IL). Nuclear extracts were confirmed to contain RSK and YB-1 by immunoblotting. Nuclear protein (5 µg) was pre-incubated for 20 min with unlabeled oligonucleotide plus acetic acid control, scrambled peptide (25 µM), or CPP (25 µM or 50 µM) prior to the addition of biotin-labeled oligonucleotide. Chicken anti-YB-1 (1 µg) was used as positive control. Reactions were run on a non-denaturing polyacrylamide gel, transferred to a nylon membrane, cross-linked at 120 mJ/cm^2 using a Stratalinker (Stratagene, La Jolla, CA) and visualized with chemiluminescence (Pierce Biotechnology).
On the technique in general: In EMSA bound probe runs differently from free probe, usually more slowly.

In series [3] the test system is EpCAM^+ primary normal human breast epithelial cells. Description: Normal mammary epithelial cells assay, MTS growth. In kind it is cell-based. Particulars: cells from reduction mammoplasties of two patients, 6 or 25 µM, 72 h.
The test system is the same in series [4]. Description: Normal mammary epithelial cells assay, colony-forming cell (CFC) assay. It is filed as cell-based. To be noted: cells from two patients, 6 or 25 µM for 48 hours, colonies counted 7 days post-seeding. How it is done: EpCAM^+ primary normal human breast epithelial cells from two patients were obtained, prepared, and isolated as previously described, [36]. In all subsequent experiments, the primary epithelial cells were grown in Epicult-B media (StemCell Technologies, Vancouver, BC) supplemented with 5% fetal calf serum. For the colony-forming cell (CFC) assay, EpCAM^+ cells from each patient were first seeded at 7000 cells/well into a 96 well plate and treated the following day with either diluent, scrambled peptide (6 or 25 µM), or CPP (6 or 25 µM) in triplicate wells for 48 hours. Following this peptide incubation, cells were harvested with trypsin, a single cell suspension was generated, and cells were seeded into the CFC assay as previously described, [37]. Colonies were counted 7 days post-seeding.

The subject of series [5] is SUM149 cells. Description: Monolayer growth assay, SUM149. It is filed as cell-based, human. Particulars: SUM149, 72 h, 0–50 µM scrambled peptide, MTS.
Experimental: (§3) For monolayer assays, cells were plated at 5000 cells per well in a 96 well plate. The following day cells were treated with diluent, 0–50 µM of scrambled peptide, or 0–50 µM CPP. The BT474, BT474-m1, HR5 and HR6 cells were also tested in combination with trastuzumab (BC Cancer Agency pharmacy, Vancouver, BC) at 20 µg/mL. […] Growth was shown as a percentage of diluent control and changes in growth were considered significant at P<0.01.
For series [6], the system named is 184htert cells. Description: Monolayer growth assay, normal immortalized mammary epithelial cells. In kind it is cell-based, human. To be noted: 72 h, MTS proliferation assay, 0–50 µM. For orientation: Tetrazolium assays rely on reduction of a dye to a coloured formazan, in cell work by metabolically active cells.
Experimental: For monolayer assays, cells were plated at 5000 cells per well in a 96 well plate. The following day cells were treated with diluent, 0–50 µM of scrambled peptide, or 0–50 µM CPP. […] Growth was shown as a percentage of diluent control and changes in growth were considered significant at P<0.01.
The test system of series [7] is P-YB-1^S102. Put plainly: Immunoblotting of P-YB-1^S102 in SUM149 cells. In kind it is cell-based, human. The protocol: (§1) Cell lines used herein were evaluated for YB-1, the activating kinases RSK and AKT, and the downstream targets EGFR and HER-2. […] Proteins were extracted using ELB plus protease and phosphatase inhibitors and western blotting was performed as previously described. The following antibodies were used to detect proteins by immunoblotting (unless otherwise indicated, all antibodies were from Cell Signaling Technology, Danvers, MA): P-YB-1^S102 (1/500), YB-1 (1/2000, Abcam, Cambridge, MA), EGFR (1/5000, Stressgen, San Diego, CA), P-p90RSK^S380 (1/500), RSK1/RSK2/RSK3 (1/1000), HER-2 (1/1000, Abcam), AKT (1/1000), creb (1/1000), pan-actin (1/1000), vinculin (1/1000). Blots were quantified using ImageJ software.
On the technique in general: A western blot detects proteins with antibodies after separation by electrophoresis.

Series [8] deals with HER-2. Put plainly: Real-time quantitative RT-PCR of HER-2 transcript in AU565 cells. To be noted: 50 µM CPP, 24 h, qRT-PCR, 18S housekeeping. In kind it is cell-based, human. How it is done: (§2) RNA was isolated from log growing AU565 and SUM149 cells treated with 50 µM scrambled CPP or 50 µM CPP for 24 h using the RNeasy Mini kit from Qiagen (Mississauga, ON). The RNA was reverse transcribed and amplified using HER-2 (for AU565 cells) or EGFR (for SUM149 and AU565 cells) specific primers and probes (Applied Biosystems, Foster City, CA). 18S mRNA was quantified as a housekeeping gene (Applied Biosystems).

Series [9] relates to BT474 cells. Put plainly: Monolayer growth assay, BT474, with or without trastuzumab. In kind it is cell-based, human. To be noted: 72 h, MTS.
Experimental: as §3
For series [10], the system named is EGFR. Description: Real-time quantitative RT-PCR of EGFR transcript in AU565 cells. In kind it is cell-based, human. Particulars: 50 µM CPP, 24 h, qRT-PCR, 18S housekeeping. How it is done:
as §2

Series [11] relates to BT474-m1 cells. Description: Monolayer growth assay, BT474-m1, with or without trastuzumab. In kind it is cell-based, human. To be noted: 72 h, MTS.
Experimental: as §3
Series [12] deals with HER-2. Put plainly: Immunoblotting of HER-2 protein in AU565 cells. In kind it is cell-based, human. To be noted: 72 h, western blot. The protocol: as §1
In series [13] the test system is HR5 cells. Description: Monolayer growth assay, HR5 (trastuzumab resistant), with or without trastuzumab. In kind it is cell-based, human. To be noted: 72 h, MTS.
Experimental: as §3
The subject of series [14] is EGFR. Description: Immunoblotting of EGFR protein in SUM149 cells. In kind it is cell-based, human. Particulars: 72 h, western blot. How it is done: as §1
The subject of series [15] is P-YB-1^S102. Put plainly: Immunoblotting of P-YB-1^S102 in AU565 cells. In kind it is cell-based, human. Particulars: 12.5–50 µM CPP, 72 h, western blot. How it is done:
as §1

Series [16] relates to EGFR. Put plainly: Immunoblotting of EGFR protein in AU565 cells. Particulars: 72 h, western blot. In kind it is cell-based, human. How it is done: as §1
For series [17], the system named is P-YB-1^S102. Put plainly: Immunoblotting of P-YB-1^S102 in LNCap cells. It is filed as cell-based, human. To be noted: 12.5–50 µM CPP, 72 h, western blot. The protocol: as §1
The test system of series [18] is EGFR. Description: Real-time quantitative RT-PCR of EGFR transcript in SUM149 cells. In kind it is cell-based, human. Particulars: 50 µM CPP, 24 h, qRT-PCR. The protocol: as §2
Series [19] deals with HR6 cells. Description: Monolayer growth assay, HR6 (trastuzumab resistant), with or without trastuzumab. In kind it is cell-based, human. Particulars: 72 h, MTS.
Experimental: as §3

As to `COc1cccc(-c2cc(=O)c3ccccc3o2)c1N` [PD098059], the “YB-1 binding to the EGFR promoter” value in series [1] is “reverse YB-1 binding”.

With `CC(=O)O[C@@H]1[C@@H](OC(C)=O)[C@@H](O)[C@H](Oc2c(-c3ccc(O)cc3)oc3cc(O)cc(O)c3c2=O)O[C@H]1C` [SL0101], the “YB-1 binding to the EGFR promoter” value in series [1] is “reverse YB-1 binding”.

Take RALKYGVRP [scrambled peptide]: the “YB-1 binding to the EGFR promoter (gel shift)” value in series [2] is “bound with high affinity”. Also, the “growth of normal breast epithelial cells (MTS)” value in series [3] is listed as “neither the scrambled peptide nor the CPP had any growth effect”. In addition, the “growth of normal breast epithelial cells (CFC output)” value in [4] was “neither the scrambled peptide nor the CPP had any growth effect”. Also, the effect on growth entry in series [5] was “no effect”. Also, the “growth of normal human mammary epithelial cells” value in series [6] was “neither the scrambled control peptide nor the CPP inhibited growth”.

For the compound RQIKIWFQNRRMKWKKPRKYLRSVG-OH [CPP], the “YB-1 binding to the EGFR promoter (gel shift)” value in series [2] is reported as “blocked binding”. Further, the “phosphorylation of YB-1^S102” value in [7] (12.5–50 µM CPP, 72 h, western blot) was “decreased phosphorylation”; in series [15], “decreased phosphorylation”; in series [17], “decreased phosphorylation”. In series [7] (1 h, western blot quantified using ImageJ, relative P-YB-1:YB-1), the “decrease of P-YB-1^S102” value was 32%. Further, the “reduction of HER-2 transcript level” value in series [8] is given as roughly 50%. Further, the sensitivity to trastuzumab result in [9] (BT474, CPP 12.5 or 50 µM with trastuzumab 20 µg/ml) was “increased the sensitivity”; in series [11] (BT474-m1, CPP 12.5 or 50 µM with trastuzumab 20 µg/ml), “increased the sensitivity”; in series [13] (HR5, CPP with trastuzumab 20 µg/ml), “overcome drug insensitivity”; in series [19] (HR6, CPP with trastuzumab 20 µg/ml), “overcome drug insensitivity”. Further, the “growth, CPP alone” value is given as “suppressed the growth” in series [9] (BT474, CPP 12.5 or 50 µM) and “suppressed the growth” in series [11] (BT474-m1, CPP 12.5 or 50 µM). The “reduction of EGFR transcript level” value in series [10] is roughly 50%. For the same compound, in [12], the HER-2 protein level entry is reported as “reduced”. Moreover, the “growth, CPP” value in [13] (HR5 trastuzumab resistant cells) and in series [19] (HR6 trastuzumab resistant cells) was “significantly suppress growth” each time. Besides, the EGFR protein level result is listed as “decreased” in series [14] and “reduced” in [16]. In [18], the “EGFR mRNA level” value is “decreased”.
